Experimental data taken from patent publication US7037502B2, “Peptide with the amino acid sequence of KVLDGQDP having anti-inflammatory properties” (priority 2001, dated 2006).
Entries after “also recorded” stand apart in the source; their conditions may differ.

Tests used:
[1] = target: T1, TGase (Guinea pig liver, EC 2.3.2.13) (UniProt P08587); test: Inhibitory effect of synthetic peptides on TGase in vitro ([14C]-putrescine incorporation into succinylated casein); format: biochemical; settings: peptides 1×10^−8 M, preincubated 15 min at 37° C.; compared with the peptides known as PLA2 inhibitors
T1 construct: 0.001 U TGase (Guinea pig liver, EC 2.3.2.13, Sigma); purchased Sigma; host or cells: guinea pig liver
T1 sequence (P08587 1-690): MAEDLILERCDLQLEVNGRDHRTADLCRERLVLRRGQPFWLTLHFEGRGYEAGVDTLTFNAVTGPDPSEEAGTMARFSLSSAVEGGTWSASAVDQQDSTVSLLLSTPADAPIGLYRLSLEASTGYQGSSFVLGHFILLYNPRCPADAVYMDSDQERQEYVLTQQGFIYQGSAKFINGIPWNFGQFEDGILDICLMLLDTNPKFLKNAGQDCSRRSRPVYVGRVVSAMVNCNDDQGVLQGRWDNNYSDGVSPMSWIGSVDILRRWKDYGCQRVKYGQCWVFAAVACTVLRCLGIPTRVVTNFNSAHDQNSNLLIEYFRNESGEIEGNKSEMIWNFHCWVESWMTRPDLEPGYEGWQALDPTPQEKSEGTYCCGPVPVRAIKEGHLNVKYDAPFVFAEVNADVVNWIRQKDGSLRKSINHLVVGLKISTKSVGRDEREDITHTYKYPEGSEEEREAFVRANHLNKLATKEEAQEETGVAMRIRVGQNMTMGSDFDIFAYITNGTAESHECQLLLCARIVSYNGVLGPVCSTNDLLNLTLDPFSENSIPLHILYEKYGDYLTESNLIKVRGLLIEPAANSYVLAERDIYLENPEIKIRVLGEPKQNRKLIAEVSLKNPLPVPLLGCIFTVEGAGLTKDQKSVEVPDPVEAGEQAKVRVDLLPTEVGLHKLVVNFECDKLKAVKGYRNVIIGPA
Description: It is needed to inhibit the activity of TGase in order to secure maximum anti-inflammatory activity since the TGase activates PLA2. A established TGase assay method was used to determine the enzymatic activity by measuring the incorporation of [1,4]^14C-putrescine into succinylated casein (Folk J E., et al., Transglutaminase. Methods in Enzymol 1985; 113; 358–375).
To determine the inhibitory activity, 0.001 U TGase (Guinea pig liver, EC 2.3.2.13, Sigma; 1.0 unit will catalyze the formation of […] of hydroxamate per min. from N- -CBZ-Gln-Gly and hydroxylamine at pH 6.0 at 37° C.) was preincubated for 15 minutes with the synthetic peptides in 0.1 ml (1×10^−8 M) at 37° C. before adding the TGase/peptide mixture to the substrate solution (0.5 ml) containing 0.1 M Tris-acetate pH 7.5, 1% succinylated casein, 1 mM EDTA, 10 mM CaCl2, 0.5% lubrol PX, 5 mM DTT, 0.15M NaCl and 0.5 mCi ^14C-putrescine [Dupont-New England Nuclear, Wilmington, […] (118 Ci/mole)]. […] The TCA-insoluble precipitates were collected onto GF/A glass fiber filters, washed with cold 5% TCA, dried and counted. […]
For inhibitory test of the peptides given, each value is the mean of data from three separate experiments (S.D.<10%). The value of TGase activity incubated without peptides was determined as 100% TGase activity that is 4.89 pmole putrescine/hr. % Inhibition was shown in FIG. 2.

[2] = system: allergic conjunctivitis to ragweed (Ambrosia trifida); test: Allergic conjunctivitis to ragweed in guinea pig: clinical scores (conjunctival edema and redness); format: in vivo, Hartley female guinea pig; settings: for Statistical evaluation of clinical scores (Mann-Whitney test), P compared to Dexamethasone / Statistical evaluation of clinical scores (Mann-Whitney test), P compared to Livostine / Statistical evaluation of clinical scores (Mann-Whitney test), P compared to No treatment group: conjunctival edema and redness score 0-4+, 20 min after allergen challenge, 12 eyes per group, eye drops
Procedure: The peptides of the present invention were analyzed in experimental model of allergic conjunctivitis to ragweed (giant ragweed; Ambrosia trifida) in guinea pig. Hartley strain of guinea pig was selected according to previous reports of conjunctival anaphylaxis (Calonge M., et al., Acta Ophthalmol 68; 470–476, 1990) and females were chosen based on the sex dimorphism of ocular mucosal immunity with the protective role of male hormones (Saruya S., et al., Act Soc Ophthalmol Jap 72; 833–845, 1968). The conjunctival redness and edema are main signs of seasonal allergic conjunctivitis and eosionphil infiltration is the hallmark of the conjunctival histology in patients with allergic conjunctivitis (Abelson M B., et al., Arch Ophthalmol. 101; 555–556, 1983; Butrus S I., et al., Int. Ophthalmol. Clin. 28; 324–328, 1988) 86 Hartley female guinea pigs, 200–250 g were housed in the animal facilities of the Asan Institute for Life Sciences (Korea), given guinea pig chow and water ad libitum, and cared for in accordance with the Declaration of Helsinki and the National Institute of Health Guide to the Care and Use of the Laboratory Animals (Korea). […] On day 15, immunized guinea pigs were divided 14 groups, 6 for each group. 11 anti-inflammatory peptides including new recombinants, dexamethasone eye drop (Maxidex, 0.1% dexamethasone, Alcon) and anti-histamine eye drop (Livostin, levocabastine, Janssen) were used for 13 groups, and no treatment for one group. Normal controls were employed as 6 non-immunized and non-treated guinea pigs. […] All the procedures were followed experimental model of allergic conjunctivitis described by Merayo-Lloves et al (Experimental model of allergic conjunctivitis to ragweed in guinea pig. Curr. Eye Res. 14; 487–494, 1995). Anti-inflammatory peptides were resolved in sterile saline (100 μmol/40 μl concentration). All peptides and dexamethasone eye solutions were challenged 3 hour prior to the last pollen application on day 15, 10 minutes after pollen application, and 4 times thereafter at the 3 hour interval. Conjunctival edema and redness were judged in room light and under an operating microscope (Zeiss, Germany). The evaluation was performed in a masked fashion at 20 min after allergen challenge and each clinical sign was scored on a scale 0–4+ (0 absent, 1+ minimal, 2+ mild, 3+ moderate, 4+ severe), adapted for guinea pig from previous report (Merayo-Lloves et al: Experimental model of allergic conjunctivitis to ragweed in guinea pig. Curr. Eye Res. 14; 487–494, 1995). Clinical scores of each group (12 eyes in each group) were analyzed.

Sequence	TGase activity (FIG. 2), result in words [1]	Statistical evaluation of clinical scores (Mann-Whitney test), P compared to Dexamethasone [2]	Statistical evaluation of clinical scores (Mann-Whitney test), P compared to Livostine [2]	Statistical evaluation of clinical scores (Mann-Whitney test), P compared to No treatment group [2]	Clinical signs (conjunctival redness and edema scores), result in words ([2]; n=12, P<0.01, SD<10%, Mann-Whitney test, listed as SEQ ID NO:2)
KVLDGQDP [Peptide R2, synthetic peptide of the invention]	significantly reduced	0.796	0.515	0.000	statistically significant difference from other groups; also recorded: most effective
KVLDPVKG [Peptide R1, synthetic peptide of the invention]	significantly reduced	0.000	0.000	0.965	–
